Where two headings read alike, the source gives them in different places. Starred links: 1 amine or outer side, 2 acyl side, 3 side chain; linkers in the order of their positions; H or OH if unused. Positions of bridges follow the written chain, without caps; N, C: chain ends. Non-standard residues stand in square brackets, D forms with d. Groups on a side chain read outwards from the residue. *: point of attachment. Butyryl(4-SO2NHCO(CH2)16Tz) = O=C(CCCCCCCCCCCCCCCCc1nnn[nH]1)NS(=O)(=O)CCCC(=O)*; Hexadecanoyl(16-SO3H) = O=C(CCCCCCCCCCCCCCCS(=O)(=O)O)*; C20 diacid = O=C(O)CCCCCCCCCCCCCCCCCCC(=O)*; C18 diacid = O=C(O)CCCCCCCCCCCCCCCCC(=O)*; C16 diacid = O=C(O)CCCCCCCCCCCCCCC(=O)*; γGlu = O=C(O)[C@H](CCC(=O)[*:2])N[*:1]; X2 = O=C(CCCCCCCCCCCCCCCCc1nnn[nH]1)*; εLys = N[C@@H](CCCCN[*:1])C(=O)[*:2]; Trx = NC[C@H]1CC[C@H](C(=O)O)CC1; AEEA = NCCOCCOCC(=O)O; Aib = CC(C)(N)C(=O)O; Ahx = NCCCCCC(=O)O
Key:
human GLP-1 receptor = molecular target: T1, human GLP-1 receptor (Homo sapiens, UniProt P43220); test: Human GLP-1 receptor in vitro potency assay (CRE-luciferase reporter, BHK cells); format: cell-based
T1 construct: expressed in transfected cells; host or cells: BHK (Baby Hamster Kidney) cells, clone BHK 467-12A KZ-10, stably transfected, with CRE-luciferase reporter
T1 sequence (P43220 24-463): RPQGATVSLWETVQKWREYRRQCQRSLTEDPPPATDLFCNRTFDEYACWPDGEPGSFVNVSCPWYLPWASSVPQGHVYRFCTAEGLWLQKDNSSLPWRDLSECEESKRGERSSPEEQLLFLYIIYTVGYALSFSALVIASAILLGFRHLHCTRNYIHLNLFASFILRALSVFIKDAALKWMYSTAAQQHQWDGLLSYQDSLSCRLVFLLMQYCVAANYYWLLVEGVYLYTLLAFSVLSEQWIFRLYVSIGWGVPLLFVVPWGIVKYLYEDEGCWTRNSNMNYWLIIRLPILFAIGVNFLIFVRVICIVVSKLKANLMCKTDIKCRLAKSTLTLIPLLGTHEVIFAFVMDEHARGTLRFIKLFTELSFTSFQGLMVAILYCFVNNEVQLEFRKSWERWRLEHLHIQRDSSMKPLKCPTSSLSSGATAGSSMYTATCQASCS
Procedure: It is thus possible to measure GLP-1 receptor activity using a CRE-luciferase reporter gene introduced into Baby Hamster Kidney (BHK) cells co-expressing the GLP-1 receptor.
Cells were aliquoted and stored at -180° C. until use.
Plates were sealed and incubated at room temperature with gentle shaking for 30 minutes while protected from light. Luminescence was detected on a luminescence plate reader e.g. a Synergy 2 (BioTek).

[1] = molecular target: T2, human amylin receptor (hAmyR3) (Homo sapiens, UniProt O60896+P30988); test: Human amylin receptor in vitro potency assay (CRE-luciferase reporter, BHK cells); format: cell-based;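 further: BHK cells expressing human calcitonin receptor plus RAMP3 (amylin-3 receptor) with a CRE-luciferase reporter, agonist activity read as luminescence from cAMP-driven transcription, 7-point serial dilutions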
T2 construct: host or cells: BHK cells (Hollex-1 line: human calcitonin receptor (a) + CRE-Luc), further transfected with human RAMP3
T2 sequence (P30988 25-474): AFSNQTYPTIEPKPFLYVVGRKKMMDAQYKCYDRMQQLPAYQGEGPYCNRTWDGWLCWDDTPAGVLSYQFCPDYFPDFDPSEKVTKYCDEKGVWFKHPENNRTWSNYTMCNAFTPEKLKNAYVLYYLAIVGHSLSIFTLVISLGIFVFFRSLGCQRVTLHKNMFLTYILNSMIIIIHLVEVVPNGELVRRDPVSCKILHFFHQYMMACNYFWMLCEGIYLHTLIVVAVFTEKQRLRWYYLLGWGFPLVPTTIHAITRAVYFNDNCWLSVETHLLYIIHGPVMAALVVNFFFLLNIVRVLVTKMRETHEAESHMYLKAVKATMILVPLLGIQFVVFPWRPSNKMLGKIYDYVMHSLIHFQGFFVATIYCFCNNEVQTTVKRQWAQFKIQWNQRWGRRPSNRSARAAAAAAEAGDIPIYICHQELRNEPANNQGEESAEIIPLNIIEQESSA
T2 sequence (O60896 24-148): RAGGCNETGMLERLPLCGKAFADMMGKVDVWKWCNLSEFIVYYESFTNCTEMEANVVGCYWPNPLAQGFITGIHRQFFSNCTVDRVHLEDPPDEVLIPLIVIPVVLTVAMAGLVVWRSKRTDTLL

[2] = Table 4a, BHK cells expressing human GLP-1R, CRE-Luc, 3 hours, read-out: Human GLP-1R potency [EC50 (pM)]
[3] = Table 4a, BHK hAmyR3/CRE-Luc cells, 3 hours, read-out: Human AmyR3 potency [EC50 (pM)]

| Substance | EC50 (human GLP-1 receptor; [2]) [pM] | EC50 [1, 3] [pM] | EC50 (human GLP-1 receptor) [pM] | Ability to agonise the GLP-1 receptor, in words (human GLP-1 receptor; Tables 4a-4c) | EC50 [1] [pM] | Ability to agonise the amylin receptor, in words ([1]; Tables 4a-4c) |
| --- | --- | --- | --- | --- | --- | --- |
| H-H[Aib]EGTFTSDVSSYLEEQAAREFIAWLVRGRK([AEEA-AEEA-γGlu-C18 diacid])GGGGEKCNTATCATQRLANFLVHSSNNFGPILPPTNVGSNTY-NH2 (disulfide 38-43 (inferred)) [Comparator compound 0671, reference compound] | – | – | 4.5 | retained their potencies on the GLP-1 receptor | 230 | impaired potency on the amylin receptor |
| H-H[Aib]EGTFTSDVSSYLEEQAAREFIAWLVRGRK([AEEA-AEEA-γGlu-C20 diacid])GGGGSGGGEASELSTAALGRLSAELHELATLPRTETGSGSP-NH2 [Compound 0638] | 4.6 | 6.9 | – | – | – | – |
| H-H[Aib]EGTFTSDVSSYLEEQAAREFIAWLVRGRK([AEEA-AEEA-γGlu-X2])GGGGEASELSTAALGRLSAELHELATLPRTETGSGSP-NH2 [Compound 0655] | 3 | 11.4 | – | – | – | – |
| H-H[Aib]EGTFTSDVSSYLEEQAAREFIAWLVRGRK([Ahx-Ahx-γGlu-C20 diacid])GGGGEASELSTAALGRLSAELHELATLPRTETGSGSP-NH2 [Compound 0659] | 4.7 | 11.5 | – | – | – | – |
| H-H[Aib]EGTFTSDVSSYLEEQAAREFIAWLVRGRK([γGlu-C20 diacid])EASELSTAALGRLSAELHELATLPRTETGSGSP-NH2 [Compound 0141] | 43.3 | 13.2 | – | – | – | – |
| H-H[Aib]EGTFTSDVSSYLEEQAAREFIAWLVRGRK([εLys-εLys-γGlu-C18 diacid])GGGGEASELSTAALGRLSAELHELATLPRTETGSGSP-NH2 [Compound 0656] | 4.1 | 13.3 | – | – | – | – |
| H-H[Aib]EGTFTSDVSSYLEEQAAREFIAWLVRGRK([εLys-εLys-γGlu-C20 diacid])GGGGEASELSTAALGRLSAELHELATLPRTETGSGSP-NH2 [Compound 0657] | 9.9 | 10.4 | – | – | – | – |
| H-H[Aib]EGTFTSDVSSYLEEQAAREFIAWLVRK([AEEA-AEEA-γGlu-C16 diacid])RGGGGGASELSTAALGRLSK([AEEA-AEEA-γGlu-C16 diacid])ELHELATLPRTETGSGSP-NH2 [Compound 0297] | 30.2 | 46 | – | – | – | – |
| H-H[Aib]EGTFTSDVSSYLEEQAAREFIEWLVRGK(Butyryl(4-SO2NHCO(CH2)16Tz))ASELSTAALGRLSAELHELATLPRTETGSGSP-NH2 [Compound 0147] | 36.8 | 33.7 | – | – | – | – |
| H-H[Aib]EGTFTSDVSSYLEEQAAREFIEWLVRGRK([AEEA-AEEA-γGlu-Trx-C20 diacid])EAEAEASELSTAALGRLSAELHELATLPRTETGSGSP-NH2 [Compound 0179] | 8.8 | 35.9 | – | – | – | – |

Further substances by falling EC50 (human GLP-1 receptor; [2]), results first:

| EC50 (human GLP-1 receptor; [2]) [pM] | EC50 [1, 3] [pM] | Substance | EC50 (human GLP-1 receptor) [pM] | Ability to agonise the GLP-1 receptor, in words (human GLP-1 receptor; Tables 4a-4c) | EC50 [1] [pM] | Ability to agonise the amylin receptor, in words ([1]; Tables 4a-4c) |
| --- | --- | --- | --- | --- | --- | --- |
| 25.7 | 14 | H-H[Aib]EGTFTSDVSSYLEEQAAREFIEWLVRGK(Butyryl(4-SO2NHCO(CH2)16Tz))GGGASELSTAALGRLSAELHELATLPRTETGSGSP-NH2 [Compound 0146] | – | – | – | – |
| 11.8 | 27.5 | H-H[Aib]EGTFTSDVSSYLEEQAAREFIEWLVRGRK([εLys-AEEA-AEEA-γGlu-Trx-C20 diacid])EASELSTAALGRLSAELHELATLPRTETGSGSP-NH2 [Compound 0438] | – | – | – | – |
| 3.9 | 12.7 | H-H[Aib]EGTFTSDVSSYLEEQAAREFIAWLVRGRK([AEEA-γGlu-C18 diacid])GGGGEASELSTAALGRLSAELHELATLPRTETGSGSP-NH2 [Compound 0660] | – | – | – | – |
| 3.1 | 11 | H-H[Aib]EGTFTSDVSSYLEEQAAREFIAWLVRGRK([Ahx-Ahx-γGlu-C18 diacid])GGGGEASELSTAALGRLSAELHELATLPRTETGSGSP-NH2 [Compound 0658] | – | – | – | – |
| 2.9 | 11.3 | H-H[Aib]EGTFTSDVSSYLEEQAAREFIAWLVRGRK([AEEA-AEEA-γGlu-Hexadecanoyl(16-SO3H)])GGGGEASELSTAALGRLSAELHELATLPRTETGSGSP-NH2 [Compound 0654] | – | – | – | – |
| 1.9 | 14.1 | H-H[Aib]EGTFTSDVSSYLEEQAAREFIAWLVRGRK([AEEA-AEEA-γGlu-C18 diacid])GGGGSGGGEASELSTAALGRLSAELHELATLPRTETGSGSP-NH2 [Compound 0637] | – | – | – | – |

Source: patent US20230331803A1, “CO-AGONISTS OF THE GLP-1 AND AMYLIN RECEPTORS” (priority 2020, published 2023)
